Test results reported in patent US4024277A, “Phosphoro-aminosulfenyl derivatives of benzofuran carbamates” (priority 1975, dated 1977).

Columns and labels:
[1] = tested on: German cockroaches; experiment: Level I immersion test, German cockroaches; assay type: in vivo, Blattella germanica (Linnaeus); details: GC (male), 5 mg/milliliter; for mortality at 5000 µg/mL: Blattella germanica, 18-24 hours, read-out: % Kill; for % Knockdown: 30 minutes after immersion
Protocol: (§1) e. Insecticidal Activity Against House Flies and German Cockroaches
Compounds of this invention were tested in a Level I test at 5 mg. of active compounds/milliliter of a solution of 40% acetone -- 60% water.
In this test a group of ten house flies (Musca domestica Linnaeus) were completely immersed in 25 ml. of the insecticidal test solution. After 10 seconds of immersion, the test solution is removed. The house flies are then transferred to holding cages lines with paper toweling. In the case of the house flies, the knockdown counts were recorded 10 minutes after termination of the immersion. The percent kill was recorded after 18-24 hours.
The same Level I test technique was employed using male German cockroaches [Blattella germanica (Linnaeus)]. In this case, the knockdown counts were recorded 30 minutes after the termination of the immersion.

[2] = tested on: southern armyworm; experiment: Initial insecticidal activity, southern armyworm; assay type: in vivo, Spodoptera eridania (Cramer); details: Spodoptera eridania, 48-hour exposure, read-out: % Kill, Southern Armyworm
Description: (§2) a. Initial Insecticidal Activity
(§3) In this test, a candidate insecticide, in solution, is applied to either infested or uninfested plants or containers by spraying or dipping. (The preferred test procedure varies with insect species. The dipping method is better than the spraying method, and vice versa, for certain species of insects. Also some species are better adapted to the test by infesting after the chemical treatment rather than before.) Once the tests have been established, a 48-hour exposure period is observed before reading the tests. Insect species included in these tests are Mexican bean beetle (Epilachna varivestis Mulsant), pea aphid [Acyrthosiphon pisum (Harris)], southern armyworm [Spodoptera eridania (Cramer)], twospotted spider mite (Tetranychus urticae Koch), large milkweed bug [Oncopeltus fasciatus (Dallas)], plum curculio [Conotrachelus nenuphar (Herbst)], confused flour beetle (Tribolium confusum Jacquelin duVal) and granary weevil [Sitophilus granarius (Linnaeus)]. Test results are set forth in Table I. A control sample, comprising the solution without the candidate insecticide, is also included.

[3] = tested on: twospotted spider mite; experiment: Seven-day residual insecticidal activity, twospotted spider mite; assay type: in vivo, Tetranychus urticae Koch; details: Tetranychus urticae, 48-hour exposure, read-out: % Kill, Twospotted Spider Mite
Description: (§4) b. Seven-Day Residual Insecticidal Activity
(§5) In this test, a candidate insecticide, in solution, is applied to uninfested plants or containers by dipping or spraying. A seven-day holding period is necessary before infestation. A 48-hour exposure period is observed before evaluation of the tests. The insect species used in this type of test are the same as those listed under initial activity.

[4] = tested on: Mexican bean beetle; experiment: Systemic insecticidal activity (soil/water), Mexican bean beetle; assay type: in vivo, Epilachna varivestis Mulsant; details: Epilachna varivestis, 48-hour exposure, read-out: % Kill, Mexican Bean Beetle
Protocol: (§6) c. Systemic Insecticidal Acitivity (Soil/Water)
(§7) In this test, a candidate insecticide, in solution, is added to the soil of either uninfested pinto bean seedlings (Phaseolus vulgaris) or uninfested broad bean seedlings (Vicia faba var. Windsor). The plant species used depend on the insect species in the test. Usually, a 72-hour translocation period before infestation is required, followed by a 48-hour exposure period, before evaluation of the tests. The insect species used in the systemic tests are Mexican bean beetle, southern armyworm, pea aphid, and twospotted spider mite.

[5] = tested on: female house flies (resistant); experiment: Level II topical test, house flies; assay type: in vivo, Musca domestica Linnaeus; details: HF (female, resistant), one microgram topically per insect; for % Knockdown: 10 minutes; for mortality at 0.001 mg: Musca domestica, topical, read-out: % Kill
Protocol: as §1
(§8) In a Level II test the compounds of this invention were tested for insecticidal activity against female house flies (resistant) and male German cockroaches. Ten insects were anesthetized with carbon dioxide and placed in a container for about 2 hours, during which time the insects recovered to normal activity. The container confining the insects is fitted with a plunger which is used to force the insects against a nylon mesh at one end of the container. One microliter of an acetone solution containing one microgram of the candidate insecticide was applied topically to each insect. The plunger was withdrawn and the insects were allowed to move freely about the container. Knockdown counts were recorded 10 minutes after treatment of house flies and 30 minutes after treatment of cockroaches.

[6] = tested on: pea aphid; experiment: Systemic insecticidal activity (soil/water), pea aphid; assay type: in vivo, Acyrthosiphon pisum (Harris); details: Acyrthosiphon pisum, 48-hour exposure, read-out: % Kill, Pea Aphid
Protocol: as §6, §7

[7] = tested on: Mexican bean beetle; experiment: Seven-day residual insecticidal activity, Mexican bean beetle; assay type: in vivo, Epilachna varivestis Mulsant; details: Epilachna varivestis, 48-hour exposure, read-out: % Kill, Mexican Bean Beetle
Description: as §4, §5

[8] = tested on: large milkweed bug; experiment: Initial insecticidal activity, milkweed bug; assay type: in vivo, Oncopeltus fasciatus (Dallas); details: Oncopeltus fasciatus, 48-hour exposure, read-out: % Kill, Milkweed Bug
Description: as §2, §3

[9] = tested on: pea aphid; experiment: Initial insecticidal activity, pea aphid; assay type: in vivo, Acyrthosiphon pisum (Harris); details: Acyrthosiphon pisum, 48-hour exposure, read-out: % Kill, Pea Aphid
Description: as §2, §3

[10] = tested on: confused flour beetle; experiment: Initial insecticidal activity, confused flour beetle; assay type: in vivo, Tribolium confusum Jacquelin duVal; details: Tribolium confusum, 48-hour exposure, read-out: % Kill, Confused Flour Beetle
Description: as §2, §3

[11] = tested on: twospotted spider mite; experiment: Systemic insecticidal activity (soil/water), twospotted spider mite; assay type: in vivo, Tetranychus urticae Koch; details: Tetranychus urticae, 48-hour exposure, read-out: % Kill, Twospotted Spider Mite
Protocol: as §6, §7

[12] = tested on: twospotted spider mite; experiment: Initial insecticidal activity, twospotted spider mite; assay type: in vivo, Tetranychus urticae Koch; details: Tetranychus urticae, 48-hour exposure, read-out: % Kill, Twospotted Spider Mite
Description: as §2, §3

[13] = tested on: German cockroaches; experiment: Level II topical test, German cockroaches; assay type: in vivo, Blattella germanica (Linnaeus); details: GC (male), one microgram topically per insect; for mortality at 0.001 mg: Blattella germanica, topical, read-out: % Kill; for % Knockdown: 30 minutes
Protocol: as §1, §8

[14] = tested on: southern armyworm; experiment: Seven-day residual insecticidal activity, southern armyworm; assay type: in vivo, Spodoptera eridania (Cramer); details: Spodoptera eridania, 48-hour exposure, read-out: % Kill, Southern Armyworm
Description: as §4, §5

[15] = tested on: confused flour beetle; experiment: Seven-day residual insecticidal activity, confused flour beetle; assay type: in vivo, Tribolium confusum Jacquelin duVal; details: Tribolium confusum, 48-hour exposure, read-out: % Kill, Confused Flour Beetle
Description: as §4, §5

SMILES: CCCOP(=O)(OCCC)N(C)SN(C)C(=O)Oc1cccc2c1OC(C)(C)C2 [2(d), 2,3-dihydro-2,2-dimethyl-7-benzofuranyl [(N-di-n-propoxyphosphinyl) (N-methyl)aminosulfenyl][methyl]carbamate]
- mortality at 5000 µg/mL [1]: 100%
- % Knockdown [1]: 100%
- mortality at 39 ppm [2]: 0%
- mortality at 156 ppm [2]: 54%
- mortality at 1250 ppm [2]: 100%
- mortality at 39 ppm [3]: 0%
- mortality at 156 ppm [3]: 0%
- mortality at 1250 ppm [3]: 1%
- mortality at 10 ppm [4]: 20%
- mortality at 39 ppm [4]: 85%
- mortality at 156 ppm [4]: 100%
- % Knockdown [5]: 0%
- mortality at 0.001 mg [5]: 40%
- mortality at 10 ppm [6]: 0%
- mortality at 39 ppm [6]: 11%
- mortality at 156 ppm [6]: 80%
- mortality at 39 ppm [7]: 50%
- mortality at 156 ppm [7]: 76%
- mortality at 1250 ppm [7]: 100%
- mortality at 39 ppm [8]: 100%
- mortality at 156 ppm [8]: 100%
- mortality at 1250 ppm [8]: 100%
- mortality at 39 ppm [9]: 86%
- mortality at 156 ppm [9]: 100%
- mortality at 1250 ppm [9]: 100%
- mortality at 39 ppm [10]: 0%
- mortality at 156 ppm [10]: 2%
- mortality at 1250 ppm [10]: 72%
- mortality at 10 ppm [11]: 0%
- mortality at 39 ppm [11]: 2%
- mortality at 156 ppm [11]: 18%
- mortality at 39 ppm [12]: 39%
- mortality at 156 ppm [12]: 91%
- mortality at 1250 ppm [12]: 100%
- mortality at 0.001 mg [13]: 10%
- % Knockdown [13]: 0%
- mortality at 39 ppm [14]: 0%
- mortality at 156 ppm [14]: 0%
- mortality at 1250 ppm [14]: 60%
- mortality at 39 ppm [15]: 0%
- mortality at 156 ppm [15]: 2%
- mortality at 1250 ppm [15]: 38%

SMILES: CCCOP(=O)(OCCC)N(CCC)SN(C)C(=O)Oc1cccc2c1OC(C)(C)C2 [3(c)]
- mortality at 5000 µg/mL [1]: 100%
- % Knockdown [1]: 100%
- mortality at 39 ppm [2]: 0%
- mortality at 156 ppm [2]: 22%
- mortality at 1250 ppm [2]: 100%
- mortality at 39 ppm [3]: < 1%
- mortality at 156 ppm [3]: 0%
- mortality at 1250 ppm [3]: 5%
- mortality at 10 ppm [4]: 44%
- mortality at 39 ppm [4]: 44%
- mortality at 156 ppm [4]: 94%
- % Knockdown [5]: 0%
- mortality at 0.001 mg [5]: 40%
- mortality at 10 ppm [6]: 0%
- mortality at 39 ppm [6]: 0%
- mortality at 156 ppm [6]: 79%
- mortality at 39 ppm [7]: 28%
- mortality at 156 ppm [7]: 92%
- mortality at 1250 ppm [7]: 100%
- mortality at 39 ppm [8]: 85%
- mortality at 156 ppm [8]: 100%
- mortality at 1250 ppm [8]: 100%
- mortality at 39 ppm [9]: 31%
- mortality at 156 ppm [9]: 100%
- mortality at 1250 ppm [9]: 100%
- mortality at 39 ppm [10]: 0%
- mortality at 156 ppm [10]: 2%
- mortality at 1250 ppm [10]: 55%
- mortality at 10 ppm [11]: < 1%
- mortality at 39 ppm [11]: < 1%
- mortality at 156 ppm [11]: 5%
- mortality at 39 ppm [12]: 32%
- mortality at 156 ppm [12]: 86%
- mortality at 1250 ppm [12]: 100%
- mortality at 0.001 mg [13]: 0%
- % Knockdown [13]: 0%
- mortality at 39 ppm [14]: 0%
- mortality at 156 ppm [14]: 0%
- mortality at 1250 ppm [14]: 0%
- mortality at 39 ppm [15]: 0%
- mortality at 156 ppm [15]: 0%
- mortality at 1250 ppm [15]: 78%

SMILES: CCN(SN(C)C(=O)Oc1cccc2c1OC(C)(C)C2)P(=O)(OC)OC [5(c), 2,3-dihydro-2,2-dimethyl-7-benzofuranyl [(N-dimethoxyphosphinyl) (N-ethyl)aminosulfenyl][methyl]carbamate]
- mortality at 5000 µg/mL [1]: 100%
- % Knockdown [1]: 100%
- mortality at 39 ppm [2]: 0%
- mortality at 156 ppm [2]: 69%
- mortality at 1250 ppm [2]: 100%
- mortality at 39 ppm [3]: 2%
- mortality at 156 ppm [3]: 0%
- mortality at 1250 ppm [3]: 2%
- mortality at 39 ppm [4]: 100%
- mortality at 156 ppm [4]: 100%
- % Knockdown [5]: 0%
- mortality at 0.001 mg [5]: 38%
- mortality at 39 ppm [6]: 0%
- mortality at 156 ppm [6]: 100%
- mortality at 39 ppm [7]: 6%
- mortality at 156 ppm [7]: 70%
- mortality at 1250 ppm [7]: 100%
- mortality at 39 ppm [8]: 100%
- mortality at 156 ppm [8]: 100%
- mortality at 1250 ppm [8]: 100%
- mortality at 39 ppm [9]: 0%
- mortality at 156 ppm [9]: 100%
- mortality at 1250 ppm [9]: 100%
- mortality at 39 ppm [10]: 0%
- mortality at 156 ppm [10]: 0%
- mortality at 1250 ppm [10]: 78%
- mortality at 39 ppm [11]: 7%
- mortality at 156 ppm [11]: 24%
- mortality at 39 ppm [12]: 6%
- mortality at 156 ppm [12]: 47%
- mortality at 1250 ppm [12]: 100%
- mortality at 0.001 mg [13]: 0%
- % Knockdown [13]: 0%
- mortality at 39 ppm [14]: 0%
- mortality at 156 ppm [14]: 0%
- mortality at 1250 ppm [14]: 61%
- mortality at 39 ppm [15]: 0%
- mortality at 156 ppm [15]: 0%
- mortality at 1250 ppm [15]: 0%

SMILES: CCCN(SN(C)C(=O)Oc1cccc2c1OC(C)(C)C2)P(=O)(Oc1ccccc1)Oc1ccccc1 [7(c)]
- mortality at 5000 µg/mL [1]: 0%
- % Knockdown [1]: 0%
- mortality at 39 ppm [2]: 0%
- mortality at 156 ppm [2]: 29%
- mortality at 1250 ppm [2]: 31%
- mortality at 39 ppm [3]: 1%
- mortality at 156 ppm [3]: 0%
- mortality at 1250 ppm [3]: 0%
- mortality at 39 ppm [4]: 45%
- mortality at 156 ppm [4]: 100%
- mortality at 39 ppm [6]: 0%
- mortality at 156 ppm [6]: 0%
- mortality at 39 ppm [7]: 20%
- mortality at 156 ppm [7]: 89%
- mortality at 1250 ppm [7]: 100%
- mortality at 39 ppm [8]: 5%
- mortality at 156 ppm [8]: 70%
- mortality at 1250 ppm [8]: 95%
- mortality at 39 ppm [9]: 11%
- mortality at 156 ppm [9]: 0%
- mortality at 1250 ppm [9]: 0%
- mortality at 39 ppm [10]: 0%
- mortality at 156 ppm [10]: 0%
- mortality at 1250 ppm [10]: 0%
- mortality at 39 ppm [11]: 4%
- mortality at 156 ppm [11]: 1%
- mortality at 39 ppm [12]: 1%
- mortality at 156 ppm [12]: 6%
- mortality at 1250 ppm [12]: 5%
- mortality at 39 ppm [14]: 0%
- mortality at 156 ppm [14]: 0%
- mortality at 1250 ppm [14]: 0%
- mortality at 39 ppm [15]: 0%
- mortality at 156 ppm [15]: 0%
- mortality at 1250 ppm [15]: 0%
